The values below come from US20040072162A1, “Hiv peptides and nucleic acids encoding them for diagnosis and control of hiv infection” (priority 2000, published 2004).

pKd: −log10 of the molar value. Peptide text beside a SMILES is read from it.

In the assay the target is HLA-A2 MHC-I (HLA-A*0204) (Homo sapiens, UniProt P04439, D140Y/D185E/D98H/E176V/E277Q/G131W/G231S/I119V/I121M/I166T/I218V/L300P/L318F/N151K/N90K/P208A/P217A/Q86G/Q94H/R138H/R169H/T345S). The assay can be described thus: biochemical.
The pKd is the negative decadic logarithm of the Kd, by convention in mol/L. `CC[C@H](C)[C@H](NC(=O)[C@H](CCC(N)=O)NC(=O)[C@H](CCC(=O)O)NC(=O)[C@H](CCC(N)=O)NC(=O)[C@H](CC(C)C)NC(=O)[C@@H](N)[C@@H](C)O)C(=O)NCC(=O)N[C@@H](Cc1c[nH]c2ccccc12)C(=O)N[C@H](C(=O)O)C(C)C` [8.56mod] (H-TLQEQIGWV-OH) had a pKd of 7.38. `CC[C@H](C)[C@H](NC(=O)[C@H](CCC(N)=O)NC(=O)[C@H](CCC(=O)O)NC(=O)[C@H](CCC(N)=O)NC(=O)[C@H](CC(C)C)NC(=O)[C@@H](N)[C@@H](C)O)C(=O)NCC(=O)N[C@@H](Cc1c[nH]c2ccccc12)C(=O)N[C@@H](CCSC)C(=O)O` [8.56nat] (H-TLQEQIGWM-OH) had a pKd of 6.61. The figure for `CC(C)C[C@H](NC(=O)[C@H](C)N)C(=O)NCC(=O)N1CCC[C@H]1C(=O)N[C@@H](C)C(=O)N[C@@H](C)C(=O)N[C@H](C(=O)N[C@@H](CC(C)C)C(=O)N[C@H](C(=O)O)C(C)C)[C@@H](C)O` [8.64mod] (H-ALGPAATLV-OH) is 8.89; for `CC(C)C[C@H](NC(=O)[C@H](C)N)C(=O)NCC(=O)N1CCC[C@H]1C(=O)N[C@@H](C)C(=O)N[C@@H](C)C(=O)N[C@H](C(=O)N[C@@H](CC(C)C)C(=O)N[C@@H](CCC(=O)O)C(=O)O)[C@@H](C)O` [8.64nat] (H-ALGPAATLE-OH) it is 6.08; for `CSCC[C@H](NC(=O)[C@H](CCC(=O)O)NC(=O)[C@H](CCC(=O)O)NC(=O)[C@H](CC(C)C)NC(=O)[C@H](CC(C)C)NC(=O)[C@H](C)N)C(=O)N[C@@H](CCSC)C(=O)N[C@H](C(=O)N[C@H](C(=O)O)C(C)C)[C@@H](C)O` [8.65mod] (H-ALLEEMMTV-OH) it is 8.96. Take `CSCC[C@H](NC(=O)[C@H](CCC(=O)O)NC(=O)[C@H](CCC(=O)O)NC(=O)[C@H](CC(C)C)NC(=O)[C@@H](NC(=O)[C@H](C)N)[C@@H](C)O)C(=O)N[C@@H](CCSC)C(=O)N[C@H](C(=O)N[C@@H](C)C(=O)O)[C@@H](C)O` [8.65nat] (H-ATLEEMMTA-OH): the pKd was 7.11. The compound `CSCC[C@H](NC(=O)[C@H](CC(C)C)NC(=O)[C@@H](N)CCC(=O)O)C(=O)N[C@H](C(=O)N[C@@H](C)C(=O)N[C@@H](CS)C(=O)N[C@@H](CCC(N)=O)C(=O)NCC(=O)N[C@H](C(=O)O)C(C)C)[C@@H](C)O` [8.66mod] (H-ELMTACQGV-OH) gave a pKd of 5.40. For `CC[C@H](C)[C@H](NC(=O)[C@@H](N)CC(N)=O)C(=O)N[C@@H](Cc1c[nH]c2ccccc12)C(=O)N[C@@H](C)C(=O)N[C@H](C(=O)N[C@@H](Cc1c[nH]cn1)C(=O)N[C@@H](C)C(=O)N[C@@H](CS)C(=O)N[C@H](C(=O)O)C(C)C)[C@@H](C)O` [8.75natV] (H-NIWATHACV-OH), the pKd was 7.24. `CC(C)C[C@H](NC(=O)[C@@H](N)CCCCN)C(=O)N[C@H](C(=O)N1CCC[C@H]1C(=O)N[C@@H](CC(C)C)C(=O)N[C@@H](CS)C(=O)N[C@H](C(=O)N[C@H](C(=O)N[C@H](C(=O)O)C(C)C)[C@@H](C)O)C(C)C)[C@@H](C)O` [8.76mod] (H-KLTPLCVTV-OH): the negative-log Kd (pKd) was 7.37. Next, `CC[C@H](C)[C@H](NC(=O)[C@H](CO)NC(=O)[C@H](C)NC(=O)[C@H](C)NC(=O)CNC(=O)[C@H](CC(C)C)NC(=O)[C@@H](N)[C@@H](C)O)C(=O)N[C@H](C(=O)N[C@H](C(=O)O)C(C)C)[C@@H](C)O` [8.85mod] (H-TLGAASITV-OH): 6.41; `CC(C)C[C@H](NC(=O)[C@H](C)N)C(=O)N[C@@H](CCC(=O)O)C(=O)N[C@@H](C)C(=O)N[C@@H](CCC(N)=O)C(=O)N[C@@H](CCC(N)=O)C(=O)N[C@@H](Cc1c[nH]cn1)C(=O)N[C@@H](CC(C)C)C(=O)N[C@H](C(=O)O)C(C)C` [8.88mod] (H-ALEAQQHLV-OH): 8.92.

For the compound `CC[C@H](C)[C@H](NC(=O)[C@H](C)N)C(=O)N[C@@H](CCC(=O)O)C(=O)N[C@@H](C)C(=O)N[C@@H](CCC(N)=O)C(=O)N[C@@H](CCC(N)=O)C(=O)N[C@@H](Cc1c[nH]cn1)C(=O)N[C@@H](CC(C)C)C(=O)N[C@@H](CC(C)C)C(=O)O` [8.88nat] (H-AIEAQQHLL-OH), the pKd was 6.07.

`CC[C@H](C)[C@H](NC(=O)[C@H](CCCCN)NC(=O)[C@H](CC(C)C)NC(=O)[C@@H](N)Cc1ccc(O)cc1)C(=O)N[C@@H](Cc1ccccc1)C(=O)N[C@H](C(=O)N[C@@H](CCSC)C(=O)N[C@H](C(=O)N[C@H](C(=O)O)C(C)C)[C@@H](C)CC)[C@@H](C)CC` [8.93mod] (H-YLKIFIMIV-OH): the pKd was 7.89. The figure for `CC[C@H](C)[C@H](NC(=O)[C@H](CCCCN)NC(=O)[C@@H](NC(=O)[C@@H](N)Cc1ccc(O)cc1)[C@@H](C)CC)C(=O)N[C@@H](Cc1ccccc1)C(=O)N[C@H](C(=O)N[C@@H](CCSC)C(=O)N[C@H](C(=O)N[C@H](C(=O)O)C(C)C)[C@@H](C)CC)[C@@H](C)CC` [8.93nat] (H-YIKIFIMIV-OH) is 7.62. Next, `CC(C)C[C@H](NC(=O)[C@@H](N)Cc1ccccc1)C(=O)N[C@@H](CC(N)=O)C(=O)N[C@H](C(=O)N1CCC[C@H]1C(=O)N1CCC[C@H]1C(=O)N[C@@H](CC(C)C)C(=O)N[C@H](C(=O)O)C(C)C)[C@@H](C)O` [8.111mod] (H-FLNTPPLV-OH): 8.25. The figure for `CC(C)C[C@H](NC(=O)[C@@H]1CCCN1C(=O)[C@@H]1CCCN1C(=O)[C@@H](NC(=O)[C@H](CC(N)=O)NC(=O)[C@@H](NC(=O)[C@@H](N)Cc1ccccc1)C(C)C)[C@@H](C)O)C(=O)N[C@H](C(=O)O)C(C)C` [8.111nat] is 7.49.

Turning to `CC[C@H](C)[C@H](NC(=O)[C@@H]1CCCN1C(=O)[C@H](Cc1ccccc1)NC(=O)[C@H](CC(C)C)NC(=O)[C@@H](N)CC(C)C)C(=O)N[C@@H](CO)C(=O)N1CCC[C@H]1C(=O)N[C@H](C(=O)O)C(C)C` [8.115mod] (H-LLFPISPV-OH), the pKd was 7.79. The figure for `CC[C@H](C)[C@H](NC(=O)[C@@H]1CCCN1C(=O)[C@H](CO)NC(=O)[C@@H](NC(=O)[C@@H]1CCCN1C(=O)[C@H](Cc1ccccc1)NC(=O)[C@H](CC(N)=O)NC(=O)[C@@H](N)CC(C)C)[C@@H](C)CC)C(=O)O` [8.115nat] (H-LNFPISPI-OH) is 7.54.

As for `CC[C@H](C)[C@H](NC(=O)CNC(=O)[C@H](CC(C)C)NC(=O)[C@H](C)N)C(=O)N[C@H](C(=O)N[C@@H](CCC(N)=O)C(=O)N[C@@H](C)C(=O)N[C@H](C(=O)O)C(C)C)[C@@H](C)CC` [8.116mod] (H-ALGIIQAV-OH), the pKd was 7.59. The figure for `CC[C@H](C)[C@H](NC(=O)CNC(=O)[C@H](CC(C)C)NC(=O)[C@H](C)N)C(=O)N[C@H](C(=O)N[C@@H](CCC(N)=O)C(=O)N[C@@H](C)C(=O)N[C@@H](CCC(N)=O)C(=O)O)[C@@H](C)CC` [8.116nat] (H-ALGIIQAQ-OH) is 7.01; for `CC(C)C[C@H](NC(=O)[C@H](CCCCN)NC(=O)[C@H](Cc1ccccc1)NC(=O)[C@H](CC(C)C)NC(=O)[C@@H](N)Cc1c[nH]c2ccccc12)C(=O)N[C@H](C(=O)N1CCC[C@H]1C(=O)N[C@H](C(=O)O)C(C)C)C(C)C` [8.121mod] (H-WLFKLVPV-OH) it is 6.74. The figure for `CC(C)C[C@H](NC(=O)[C@H](CCCCN)NC(=O)[C@H](Cc1ccccc1)NC(=O)[C@H](CS)NC(=O)[C@@H](N)Cc1c[nH]c2ccccc12)C(=O)N[C@H](C(=O)N1CCC[C@H]1C(=O)N[C@H](C(=O)O)C(C)C)C(C)C` [8.121nat] (H-WCFKLVPV-OH) is 6.70.
